{"source": "paper PMC2362735", "about": "“New semisynthetic vinca alkaloids: chemical, biochemical and cellular studies” (British Journal of Cancer, 1999)", "key": {"[1]": {"test_system": "Mouse leukaemia P388 cells", "assay": "In vivo anti-tumour effect on P388 mouse leukaemia, single i.p. dose", "conditions": "P388 mice, single dose i.p.", "from_the_text": "(§1) The numerous antimitotic drugs already developed and therapeu- tically used for a large number of pathologies belong to different classes based on their chemical structure and other distinctive features. Antimitotic drugs usually target the tubulin/microtubule network of the cytoskeleton that is formed by assembly of cyto- plasmic tubulin dimers. The stability of the different microtubular structures varies considerably; some of their functions depend on their lability. The lability is augmented by the extreme sensitivity to various drugs. Several synthetic and natural compounds interact specifically with tubulin and/or microtubule, fundamentally destroying its dynamic character and leading to cell death. […] Because of their extensive clinical use, it is important to synthesize additional agents having at least the same biological activity. […] Nevertheless, it is unclear yet how the anti-calmodulin activity of these drugs is related to their desired and undesired pharmacological effects. […] The synthesis of the KAR derivatives are presented. […] Taxol, GTP and trifluoperazine were purchased from Sigma. All organic reagents for synthesis of the new compounds were obtained from Aldrich and were of the highest grade. All other chemicals were reagent grade commercial preparations. […] Tubulin was stored in 1 M sucrose, 10 mM sodium phosphate buffer, 0.5 mM magnesium chloride and 0.1 mM GTP, pH 7.0, at -80C and dialysed against the appropriate buffer before use. […] PFK, aldolase and glycerol-3-phosphate dehydrogenase- triosephosphate isomerase purified from rabbit skeletal muscle were purchased in ammonium sulphate suspensions from Sigma or Boehringer. The enzyme suspensions were centrifuged at 10 000g for 5 min. The pellets were suspended in the appropriate buffer, then the enzymes were gel filtered or dialysed in the same buffer to remove ammonium sulphate. […] (Figure 1B; R1 , CH3; R2 , CH2 CH2 Cl). […] After 2 h incubation at room temperature, 200 ml dried toluene was added to the reaction mixture. […] The mixture was stirred for 30 min. After separation of the organic phase, it was washed with water (3 x 30 ml) and dried with potassium sulphate and evaporated on a water bath of 35-40C at 20-27 hPa. The resulting material was chromatographed on silica gel (500 g, bead size of 0.040- 0.063 mm) column (30 mm x 500 mm) using ethyl acetate/ethanol (9:1) mixture as eluent. […] The mixture was kept for 4 h at room temperature and then evaporated on a water bath at 40C under a vacuum of 80 hPa to a final volume of 5-6 ml. […] (Figure 1B, R1 , CHO; R2 , CH2 CH2 Cl). […] Synthesis of KAR-4 [3-allyl-2,4-dioxo-3,5-spiro-oxazolidino- 4-deacetoxy-vinblastine] (Figure 1B; R1 , CH3; R2 , CH2 CH=CH2 ). […] NMR measurements were carried out on a Varian Unity plus-500 instrument (500 MHz for 1H and 125 MHz for 13C) in DMSO. Chemical shifts were determined relative to dTMS = 0.00 p.p.m. 1H and 13C signal assignments were verified by a concerted use of two-dimensional 1H-1H and 1H-13C shift correlation methods (DQFCOSY, HSQC, HMBC) and NOESY experiments. The gradient-enhanced DQFCOSY, HSQC, HMBC and NOESY experiments were recorded by using the standard spectrometer software package. A mixing time of tmix = 0.5 s was used for the NOESY experiments."}, "[2]": {"test_system": "Mouse Ehrlich ascites tumour cells", "assay": "In vivo anti-tumour effect on Ehrlich ascites carcinoma, single i.p. dose 4 days after transplantation", "from_the_text": "as §1"}, "[3]": {"test_system": "Mouse leukaemia P388 cells", "design": "method as in Orosz et al (1997a)", "conditions": "P388, single doses i.p.; data published also in ref Orosz et al (1997a); cited from earlier work"}, "[4]": {"test_system": "mouse leukaemia P388", "design": "method as in Orosz et al, 1997a", "conditions": "ref Orosz et al, 1997a, cited from earlier work"}, "[5]": {"conditions": "Table 2A, 40 mg kg-1 single dose i.p."}, "[6]": {"conditions": "Table 2B, 20 mg kg-1 single dose i.p."}, "[7]": {"conditions": "Table 2B, 40 mg kg-1 single dose i.p."}, "[8]": {"conditions": "Table 2B, 60 mg kg-1 single dose i.p."}, "[9]": {"conditions": "Table 2B, 80 mg kg-1 single dose i.p."}}}
{"smiles": "CC[C@]1(O)C[C@@H]2CN(CCc3c([nH]c4ccccc34)[C@@](C(=O)OC)(c3cc4c(cc3OC)N(C)[C@@H]3[C@]45CCN4CC=C[C@@](CC)(C[C@@]36OC(=O)N(CCCl)C6=O)[C@H]45)C2)C1", "note": "[KAR-2, 3′-(β-chloroethyl)-2′,4′-dioxo-3,5′-spiro-oxazolidino-4-deacetoxy-vinblastine]", "values": [{"measurement": "maximal tolerated dose", "setting": "[1]", "result": 80, "unit": "mg/kg"}, {"measurement": "mortality of treated animals", "setting": "[2]; 80 mg kg-1 single dose i.p., three mice per group", "result": "The animals were dying in the same day of the sacrifice"}, {"measurement": "Cells ml-1 (per cent of control)", "setting": "[2]; [5]", "result": "56 per cent of control"}, {"measurement": "Total cells (per cent of control)", "setting": "[2]; [5]", "result": "24 per cent of control"}, {"measurement": "Volume of tumour per mouse", "setting": "[2]; Table 2A, 40 mg kg-1 single dose i.p., sacrifice 8 days after implantation, control 5.33 ml", "result": 2.33, "unit": "mL"}, {"measurement": "Cells ml-1 (per cent of control)", "setting": "[2]; [6]", "result": "63 per cent of control"}, {"measurement": "Total cells (per cent of control)", "setting": "[2]; [6]", "result": "46 per cent of control"}, {"measurement": "Volume of tumour per mouse", "setting": "[2]; Table 2B, 20 mg kg-1 single dose i.p., control 2.67 ml", "result": 1.97, "unit": "mL"}, {"measurement": "Cells ml-1 (per cent of control)", "setting": "[2]; [7]", "result": "60 per cent of control"}, {"measurement": "Total cells (per cent of control)", "setting": "[2]; [7]", "result": "24 per cent of control"}, {"measurement": "Volume of tumour per mouse", "setting": "[2]; Table 2B, 40 mg kg-1 single dose i.p., control 2.67 ml", "result": 1.17, "unit": "mL"}, {"measurement": "Cells ml-1 (per cent of control)", "setting": "[2]; [8]", "result": "46 per cent of control"}, {"measurement": "Total cells (per cent of control)", "setting": "[2]; [8]", "result": "29 per cent of control"}, {"measurement": "Volume of tumour per mouse", "setting": "[2]; Table 2B, 60 mg kg-1 single dose i.p., control 2.67 ml", "result": 1.70, "unit": "mL"}, {"measurement": "Cells ml-1 (per cent of control)", "setting": "[2]; [9]", "result": "211 per cent of control"}, {"measurement": "Total cells (per cent of control)", "setting": "[2]; [9]", "result": "36 per cent of control"}, {"measurement": "Volume of tumour per mouse", "setting": "[2]; Table 2B, 80 mg kg-1 single dose i.p., control 2.67 ml", "result": 0.45, "unit": "mL"}, {"measurement": "Dose (mg kg-1) giving the maximal effect", "setting": "[3]", "result": 60, "unit": "mg/kg"}, {"measurement": "Maximal effect T/C (%)", "setting": "[3]", "result": 207, "unit": "%"}, {"measurement": "T/C", "setting": "[4]; P388, 1 mg kg-1, eightfold treatment", "result": 174, "unit": "%"}, {"measurement": "neurotoxic side-effects (e.g. paralysis of bladder or lower extremities)", "setting": "[4]; P388 in vivo tests", "result": "did not induce neurotoxic side-effects"}]}
